Measurements taken from patent US4772475A, “Controlled-release multiple units pharmaceutical formulation” (Yamanouchi Pharmaceutical Co., Ltd., priority 1985, dated 1988).

Legend:
Solubility in water = assay type: physicochemical
α = settings: cited from earlier work

solubility (Solubility in water): 3000 to 5000 µg/mL
SMILES: CCOc1ccccc1OCCNC(C)Cc1ccc(OC)c(S(N)(=O)=O)c1.Cl (centres unmarked) [YM-12617, 5-{2-[2-(o-ethoxyphenoxy)ethylamino]propyl}-2-methoxybenzenesulfonamide hydrochloride]
α-blocking action (α): shows an α-blocking action
